Laboratory results taken from patent US10507207B2, “Non-nucleosidic inhibitors of reverse transcriptase as antagonists of cell proliferation and inducers of cell differentiation” (ISTITUTO SUPERIORE DI SANITA, priority 2001, dated 2019).

Columns and labels:
NB4 cells [1] = test: Growth, viable cell count; type: cell-based, human; settings: NB4, Nev 350 μM, 4 days
Kasumi-1 cells = test: Growth, viable cell count; type: cell-based, human; settings: Kasumi-1, Nev 350 μM, 4 days
[2] = tested on: Saos-2 osteosarcoma cells; test: Cell proliferation by cell counting; type: cell-based, human; settings: 350 μM nevirapine vs control cultures
Procedure: Samples were withdrawn at specific times and cells were counted in nevirapine-exposed and control (DMSO-exposed) cultures. […] Saos-2 osteosarcoma cells were the most slowly responsive type, and only after 5 days of exposure did the growth rate begin to decrease compared to control cultures.
The effect of efavirenz was further tested in human HeLa adenocarcinoma and Saos-2 osteosarcoma cells. Both cell lines were cultured in the conditions described above (Example 6). To establish if prolonged exposure to the drug improved the effectiveness of growth inhibition, both cell lines were exposed to efavirenz in two subsequent cycles: during the 1st cycle cells were continuously exposed to 20 μM efavirenz for 5 days; cells were then diluted, reseeded again and the 2nd cycle exposure was initiated the following day with fresh drug. […] The inhibitory effect was time-dependent, since in both HeLa and Saos-2 cultures, the 1st cycle of exposure (5 days) yielded a 1.6- and 1.5-fold reduction, respectively, whereas a 5- and 4-fold reduction was obtained in the 2nd cycle (carried out until day 20 from the onset of exposure).

HL60 cells [3] = test: Morphological differentiation, Wright-Giemsa staining; type: cell-based, human; settings: five days of nevirapine treatment (400 μM)
endogenous RT activity = test: PCR-based functional RT activity assay (MS2 RNA) with F9 lysate; type: biochemical, murine; settings: cell lysate pre-incubated with 100 μM
From the text: FIG. 1: Reverse transcriptase in murine and human cell lines. FIG. 1A. […] Lanes M, DNA molecular weight markers; lane 23, positive control reaction with commercial Rt. FIG. 1B. Western analysis of RT proteins (upper panels) and α-tubulin (lower panels) in WCE and nuclei. WCE were from: F9 (lane 1), NIH/3T3 (lane 2), MCF7 (lane 3), MDA-231 (lane 4), NB4 (lane 5), HL60 (lane 6) and ML2 blasts (lane 7). Nuclear extracts were from: F9 (lane 1), MCF7 (lane 2), MDA-231 (lane 3), NIH 3T3 (lane 4), HL60 (lane 5) and NB4 (lane 6).
The RT enzymatic activity, which is the target of the inhibitors described herein, has been detected in all cell lines, of both murine and human origin, that have been tested in this work using a PCR-based assay. […] The presence of RT enzyme in tumor cells is further confirmed by Western blot analysis.

AML #2 = test: Growth, viable cell count; type: cell-based, human; settings: AML #2, Nev 350 μM, 4 days
ascite tumor = test: BALB/C mice inoculated with ascite tumor; type: in vivo; settings: nevirapine 1 mg/mouse/day intraperitoneally for seven days from day of inoculation; controls 5/5 tumor
Procedure: Procedure: 10 BALB/C mice were inoculated intraperitoneally (twice) with ascite tumor cells by injecting 0.2 ml of ascite withdrawn from an animal inoculated 8 days before. […] Mice were treated continuously with nevirapine for seven days.

AML#1 = test: Cytofluorimetric analysis of cell surface markers; type: cell-based, human; settings: AML#1, NEV 450 μM, 4 days
NB4 cells [4] = test: Morphological differentiation, Wright-Giemsa staining; type: cell-based, human; settings: five days of nevirapine treatment (400 μM)
primary AML blasts = test: Differentiation of AML cells poorly sensitive to RA; type: cell-based, human; settings: nevirapine treatment
early mouse embryos = test: Early mouse embryo cultures from in vitro fertilization (IVF) assays; settings: added to cultures of IVF embryos; preliminary studies
NB4 cells [5] = test: Cytofluorimetric analysis of cell surface markers; type: cell-based, human; settings: NB4, NEV 450 μM, 4 days
From the text: (§1) The induction of CD11b is associated with granulocytic differentiation, CD14 is considered a monocytic specific antigen and CD15 is a myelomonocytic antigen. Simultaneous induction of CD14 and CD11b relates to monocytic differentiation. […] In nevirapine-treated NB4 and HL60 cells, a strong induction of expression of CD15, and, to a lesser degree, CD11b and CD14 markers was detected.

HL60 cells [6] = test: Cytofluorimetric analysis of cell surface markers; type: cell-based, human; settings: HL60, NEV 450 μM, 4 days
From the text: as §1

[7] = tested on: C2C7 myogenic satellite cells; test: Differentiation of C2C7 myogenic cells (myotube scoring, MHC immunofluorescence); type: cell-based, murine; settings: nevirapine pre-treatment, differentiation medium 48 h, anti-MHC IF
From the text: FIG. 4C, 60× magnification of myotubes in A. FIG. 4D, 60× magnification of myotubes in B. FIG. 4E, 60× magnification of MHC-positive myoblasts in the field in B.
Murine C2C7 myogenic satellite cells, which proliferate as mononucleated myoblasts can be induced to differentiate upon growth factor withdrawal and form multinucleated myotubes that express muscle-specific genes. […] By light-field microscopy scoring (n=300 cells from randomly selected fields), the ratio between multinucleated myotubes (i.e., cells with more than three nuclei) and mono/binucleated cells was about 1:1 in nevirapine-treated compared to 1:2 in untreated samples. Cells monolayers were further analyzed by immunofluorescence (IF) using a polyclonal antibody to myosin heavy chain (MHC), a late marker of muscle differentiation.

F9 teratocarcinoma cells = test: Cell proliferation by cell counting; type: cell-based, murine; settings: 350 μM nevirapine, after 120 h of exposure
Procedure: NIH/3T3 embryo fibroblasts and F9 teratocarcinoma cells were cultured in DMEM containing 10-20% fetal serum and two concentrations of efavirenz, i.e. 10 and 20 μM, diluted from a stock solution (10 mM) in 100% DMSO. Cells were plated at a density of 2-5×10^4 in 35 mm Petri dishes and exposed to efavirenz 5-6 hours later. Samples were withdrawn at specific times and cells were counted in efavirenz-exposed compared to parallel non-exposed cell cultures.

## Cc1ccnc2c1NC(=O)c1cccnc1N2C1CC1 [nevirapine, 5,11-dihydro-11-cyclopropyl-4-methyl-6H-dipyrido-[3,2-b:2′,3′-e][1,4]diazepin-6-one]
NB4 cells [1]
  Viable cells N^0 × 10^5: 2.6 ± 0.4 × 10^5
Kasumi-1 cells
  Viable cells N^0 × 10^5: 4.5 ± 0.9 × 10^5
[2]
  exposure after which the growth rate begins to decrease: 5 days
HL60 cells [3]
  morphology: myelomonocytic-like morphology was evident
Endogenous RT activity
  RT activity, 112 bp-product: abolished
AML #2
  Viable cells N^0 × 10^5: 1.2 ± 0.1 × 10^5
Ascite tumor
  treated animals remaining healthy with no evidence of tumor growth: ⅗
AML#1
  CD11b mean fluorescence intensity: 5.9 AU
  CD14 mean fluorescence intensity: 8.8 AU
  CD15 mean fluorescence intensity: 15.6 AU
NB4 cells [4]
  morphology: myelomonocytic-like morphology was evident
Primary AML blasts
  differentiation (morphological, functional, immunophenotypic): triggering differentiation
Early mouse embryos
  development of early mouse embryos: early and effective developmental arrest
NB4 cells [5]
  CD11b mean fluorescence intensity: 10.1 AU
  CD14 mean fluorescence intensity: 23.1 AU
  CD15 mean fluorescence intensity: 196.3 AU
HL60 cells [6]
  CD11b mean fluorescence intensity: 16.6 AU
  CD14 mean fluorescence intensity: 45.3 AU
  CD15 mean fluorescence intensity: 1298.1 AU
[7]
  myosin synthesis in isolated myoblasts: already activated
F9 teratocarcinoma cells
  reduction in the proliferation rate: 5 fold
